Test results published in patent US20070117851A1, “Liquid pharmaceutical compositions of nimodipine” (TRANSFORM PHARMACEUTICALS, INC., priority 2005, published 2007).
Values after ≈ are worked out from the molar mass of the structure shown.

How the values were obtained:
[1] = Chemical stability of nimodipine in the Table 2 composition via HPLC; assay type: physicochemical
Description: The chemical stability of nimodipine was measured at 40 and 60 degrees C. via HPLC in a composition described in Table 2.
FIGS. 1 and 2 show the chemical stability of nimodipine in the composition described in Table 2 at 40 and 60 degrees C., respectively. These Figures show data acquired with compositions having a pH of 5, 6, and 7, over a period of four weeks. […] Subsequent data has also been acquired over a period of 8 weeks.

[2] = Nimodipine equilibrium solubility in alcohol/solvent/water mixtures; assay type: physicochemical; settings: 10% ethanol
Description: The effect of several alcohol and solvent concentrations on nimodipine solubility in water was studied. Nimodipine equilibrium solubility was tested at room temperature with the following solutions: • 1. Various % (v/v) of ethanol in 10 mM pH 6.8 citrate buffer • 2. Various % (w/w) of Cremophor® EL in 10 mM pH 6.8 citrate buffer • 3. Various % (v/v) of ethanol with 30% (w/w) Cremophor® EL in 10 mM pH 6.8 citrate buffer • 4. Various % (w/w) of propylene glycol (PG) in the solution of 30% Cremophor™ EL and 10% ethanol in citrate buffer at pH 6.8 • 5. Various % (w/w) of propylene glycol (PG) in the solution of 20% Cremophor® EL and 10% ethanol in citrate buffer at pH 6.8 • 6. Various % (w/w) of PEG 400 in the solution of 20% Cremophor® EL and 10% ethanol in citrate buffer at pH 6.8 • 7. Various % (w/w) of PEG400 in the solution of 30% Cremophor® EL and 10% ethanol in citrate buffer at pH 6.8 • 8. Various % (w/w) of mixture of PG/PEG400 at 1:1 (w/w) in the solution of 30% Cremophor® EL and 10% ethanol in citrate buffer at pH6.8 The above solutions were prepared by weight except solution 1 which the percent ethanol was mixed with citrate buffer by volume. […] Concentration of each sample was determined by HPLC based on a standard curve and the dilution factor of each samples solution. […]

nimodipine stability ([1]; Table 2 composition (3.0 mg/mL), 40 degrees C, pH 5, 6 and 7, four weeks, HPLC): greater than 99% | nimodipine stability ([1]; Table 2 composition (3.0 mg/mL), 60 degrees C, pH 5, 6 and 7, four weeks, HPLC): greater than 99% | nimodipine stability ([1]; Table 2 composition, 60 degrees C, pH=7, 8 weeks): greater than 99% | nimodipine solubility compared with the composition comprising 30% ethanol and 30% Cremophor EL ([2]; 30% PEG 400, FIG. 7): comparable | solubility at 24 h ([2]; aqueous with cosolvent or surfactant or cyclodextrin, thermodynamic from solid, 30% Cremophor EL, 30% PEG 400 in citrate buffer pH 6.8, room temperature, 24 hours): ~14 mg/mL (≈ 33.5 mM)
Structure (SMILES): COCCOC(=O)C1=C(C)NC(C)=C(C(=O)OC(C)C)C1c1cccc([N+](=O)[O-])c1 (centres unmarked) [nimodipine, 1,4-dihydro-2,6-dimethyl-4-(3-nitrophenyl)-3,5-pyridinedicarboxylic acid 2-methoxyethyl 1-methylethyl ester]
